Measured values from patent publication US12378247B2, “Mesylate salt of para-topolin, compositions containing said salt and use thereof” (USTAV EXPERIMENTALNI BOTANIKY AV CR, V. V. I., priority 2020, dated 2025).
Structures can show the parent of a compound that is named as a salt.

Key:
[1] = Calcein AM cytotoxicity assay, CEM; assay type: cell-based; conditions: human, CEM cells (T-lymphoblastic leukaemia), 3-day Calcein-AM assay, read-out: Cytotoxic activity IC50
Excerpt: (§1) Because toxic compounds negatively influence metabolic processes of cells, many standard cytotoxicity assays are based on measurement of metabolisation rate of various artificial substrates. Resulting product is then quantified, for example, by means of spectrometry. The assays can be easily modified for use in 96-well plates. For evaluation of cytotoxicity of the […] of this invention, a microtiter assay based on quantification of metabolisation of Calcein AM was used. The assay is widely used in drug screening programs and in chemosensitivity testing. In live cells, Calcein AM is enzymatically hydrolysed and accumulation of the resulting calcein is manifested by green fluorescence. […]
(§2) Approximately 10,000 cells in 80 μL of medium were seeded into 96-well microtitre plates. […] The fluorescence of free calcein was then quantified using a Fluoroscan Ascent fluorometer (Microsystems), and the percentage of surviving cells in each well was calculated by dividing the OD obtained from each cell with exposed cells by the mean OD obtained from control wells×100%. […]

[2] = Calcein AM cytotoxicity assay, G361; assay type: cell-based; conditions: human, G361 cells (malignant melanoma); G361, 3-day Calcein-AM assay; read-out: Cytotoxic activity IC50
Excerpt: as §1, §2

Disproportionation study = assay type: physicochemical; conditions: 50 mg in 1 ml distilled water, ca. 48 hours, recrystallized
Experimental: A 50 mg sample of crystalline para-topolin mesylate salt was dissolved in 1 ml of distilled water, kept in solution for ca. 48 hours and then crystallized and checked by XRPD for disproportionation.

[3] = Calcein AM cytotoxicity assay, MCF7; assay type: cell-based; conditions: human, MCF-7 cells (breast adenocarcinoma); MCF7, 3-day Calcein-AM assay; read-out: Cytotoxic activity IC50
Excerpt: as §1, §2

[4] = Calcein AM cytotoxicity assay, HL60; assay type: cell-based; conditions: human, HL-60 cells (promyelocytic leukaemia); HL60, 3-day Calcein-AM assay; read-out: Cytotoxic activity IC50
Excerpt: as §1, §2

[5] = system: CEM (T-lymphoblastic leukaemia); experiment: Calcein AM cytotoxicity assay, CEM; assay type: cell-based; conditions: 3-day Calcein-AM assay, read-out: Cytotoxic activity IC50
Excerpt: as §1, §2

[6] = system: G361 (malignant melanoma); experiment: Calcein AM cytotoxicity assay, G361; assay type: cell-based; conditions: G361, 3-day Calcein-AM assay; read-out: Cytotoxic activity IC50
Excerpt: as §1, §2

[7] = system: MCF-7 (breast adenocarcinoma); experiment: Calcein AM cytotoxicity assay, MCF7; assay type: cell-based; conditions: MCF7, 3-day Calcein-AM assay; read-out: Cytotoxic activity IC50
Excerpt: as §1, §2

[8] = system: HL-60 (promyelocytic leukaemia); experiment: Calcein AM cytotoxicity assay, HL60; assay type: cell-based; conditions: HL60, 3-day Calcein-AM assay; read-out: Cytotoxic activity IC50
Excerpt: as §1, §2

Oc1ccc(CNc2ncnc3nc[nH]c23)cc1 [para-topolin mesylate, 6-(4-hydroxybenzylamino) purine (para-topolin) mesylate (methylsulphonate)]
IC50 at 72 h [1]: > 167 µM
IC50 at 72 h [2]: > 167 µM
Disproportionation (XRPD) (Disproportionation study): No signs of disproportionation
IC50 at 72 h [3]: > 167 µM
IC50 at 72 h [4]: > 167 µM

Oc1ccc(CNc2ncnc3nc[nH]c23)cc1 [para-topolin, 6-(4-Hydroxybenzylamino) purine]
IC50 [5]: > 167 µM
IC50 [6]: > 167 µM
IC50 [7]: > 167 µM
IC50 [8]: > 167 µM
